This passage reports IC50 results from BindingDB's records for doi:10.7270/Q25D8Q92 (Burnham Center For Chemical Genomics, 2011).

A word on the IC50: it is the point on the concentration scale where inhibition reaches its midpoint. A high value points to lower potency.

The assay addresses T1, Bcl-2-related protein A1 (Mus musculus, UniProt Q07440).
T1 sequence (Q07440 whole entry): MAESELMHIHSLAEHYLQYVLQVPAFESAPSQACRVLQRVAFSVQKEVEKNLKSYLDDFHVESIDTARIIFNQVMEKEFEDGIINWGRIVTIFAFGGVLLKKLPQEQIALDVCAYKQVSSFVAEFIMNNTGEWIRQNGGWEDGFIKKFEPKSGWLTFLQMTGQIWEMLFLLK
Kind of assay: Bfl-1 activity inhibition – biochemical, dose response (AID 504689).

Compound `COc1cc(C2c3c(-c4cccs4)n[nH]c3OC(=N)C2C#N)cc(OC)c1O` (stereo not drawn) [SMR000275523] gave a half-inhibitory concentration (IC50) of more than 20 µM.

Compound `CCOc1ccc(-c2csc(NC(=O)c3cccc(-n4c(O)ccc4O)c3)n2)cc1` [SMR000319795] displayed a half-maximal inhibitory concentration (IC50) of more than 20 µM.

The compound `C#CCOCCOCCOCCNc1nc(N2CCN(C(=O)[C@H](CCCCN)n3cc([C@@H](N)C(C)CC)nn3)CC2)nc(N2CCN(C(=O)[C@H](Cc3cc4ccccc4[nH]3)n3cc([C@@H](N)CC(C)C)nn3)CC2)n1` (stereo partly drawn) [SMR000391070] showed a concentration for half-maximal inhibition (IC50) of more than 20 µM.

Take `C#CCOCCOCCOCCNc1nc(N2CCN(C(=O)[C@H](CCCCN)n3cc([C@@H](N)C(C)CC)nn3)CC2)nc(N2CCN(C(=O)[C@H](Cc3ccc(O)cc3)n3cc([C@@H](N)C(C)CC)nn3)CC2)n1` (stereo partly drawn) [SMR000391090]: the IC50 was more than 20 µM.

Compound `C#CCOCCOCCOCCNc1nc(N2CCN(C(=O)[C@H](CCCCN)n3cc([C@@H](N)CC(C)C)nn3)CC2)nc(N2CCN(C(=O)[C@H](Cc3cc4ccccc4[nH]3)n3cc([C@@H](N)Cc4ccc(O)cc4)nn3)CC2)n1` [SMR000391143] displayed a half-inhibitory concentration (IC50) of more than 20 µM.

Take `C#CCOCCOCCOCCNc1nc(N2CCN(C(=O)[C@H](Cc3cc4ccccc4[nH]3)n3cc([C@@H](N)C(C)CC)nn3)CC2)nc(N2CCN(C(=O)[C@H](Cc3cc4ccccc4[nH]3)n3cc([C@@H](N)Cc4ccc(O)cc4)nn3)CC2)n1` (stereo partly drawn) [SMR000391146]: the IC50 worked out at 11.7 µM.

In turn, `CC1CC(C)(C)N2C(=O)/C(=N\NC(N)=S)c3cccc1c32` (stereo not drawn) [SMR000414933] came in with a half-maximal inhibitory concentration (IC50) of more than 20 µM.

For the compound `CCN(CC)CCOC(=O)c1ccc(N=CC(C#N)c2nc(-c3ccc(OC)c(OC)c3)cs2)cc1` (stereo not drawn) [SMR000434079], the half-inhibitory concentration (IC50) came out at 3.44 µM.

In the case of `C#CCOCCOCCOCCNc1nc(N2CCN(C(=O)C([C@@H](C)CC)n3cc(C(N)COC(=O)C(F)(F)F)nn3)CC2)nc(N2CCN(C(=O)[C@H](CCCCN)n3cc(C(N)CC(C)C)nn3)CC2)n1` (stereo partly drawn) [SMR000453712], the half-inhibitory concentration (IC50) is more than 20 µM.

Regarding `C#CCOCCOCCOCCNc1nc(N2CCN(C(=O)CCCCCCCCCCNC(=O)Cn3cc(CCCCCN)nn3)CC2)nc(N2CCN(C(=O)CCCCCCCCCCNC(=O)Cn3cc(CCCCCN)nn3)CC2)n1` [SMR001231146], the 50% inhibitory concentration (IC50) was 13.3 µM.

Compound `C#CCOCCOCCOCCNc1nc(N2CCN(C(=O)CCCCCCCCCCNC(=O)[C@H](CO)n3cc(CCCSC)nn3)CC2)nc(N2CCN(C(=O)CCCCCCCCCCNC(=O)[C@H](CCCCN)n3cc(CCO)nn3)CC2)n1` [SMR001318322] came in with an IC50 of 14.2 µM.

In turn, `Cc1cccc2c1C(=NNC(N)=S)C(=O)N2C1OC(CO)C(O)C(O)C1O` (stereo not drawn) [The compound has not trivial name.] had a concentration for half-maximal inhibition (IC50) of more than 20 µM.

Compound `NC(=S)NN=C1C(=O)N(C2OC(=O)c3ccccc32)c2ccccc21` (stereo not drawn) [[(Z)-[2-oxo-1-(3-oxo-1H-isobenzofuran-1-yl)-3-indolylidene]amino]thiourea] displayed an IC50 of more than 20 µM.
